Assays:
Test in all cases: Test D controlled growth environment herbicide test, pre- and postemergence
Assay type in all cases: in vivo
[1] = system: lambsquarters (Chenopodium album)
Summary of the method: (§1)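 Rating is visual, 0–100 scale (100 = complete control), made against untreated plants 14–21 d after treatment in controlled growth conditions. Postemergence sprays went onto 1- to 4-leaf plants in peat medium; preemergence sprays onto silt loam after sowing; formulation included a surfactant.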

[2] = system: bluegrass (annual bluegrass, Poa annua)
Summary of the method: as §1

[3] = system: blackgrass (Alopecurus myosuroides)
Summary of the method: as §1

[4] = system: wheat, winter (winter wheat, Triticum aestivum)
Summary of the method: as §1

[5] = system: foxtail, green (green foxtail, Setaria viridis)
Summary of the method: as §1

[6] = system: chamomile (scentless chamomile, Matricaria inodora)
Summary of the method: as §1

[7] = system: ryegrass, Italian (Italian ryegrass, Lolium multiflorum)
Summary of the method: as §1

[8] = system: wheat, spring (spring wheat, Triticum aestivum)
Summary of the method: as §1

[9] = system: field poppy (Papaver rhoeas)
Summary of the method: as §1

[10] = system: mustard, wild (wild mustard, Sinapis arvensis)
Summary of the method: as §1

[11] = system: oilseed rape (Brassica napus)
Summary of the method: as §1

[12] = system: barley, spring (spring barley, Hordeum vulgare)
Summary of the method: as §1

[13] = system: speedwell (bird's-eye speedwell, Veronica persica)
Summary of the method: as §1

[14] = Postemergence, 31 g ai/ha, scale 0 to 100 (0 no effect, 100 complete control)
[15] = Postemergence, 125 g ai/ha, visual rating on scale 0 (no effect) to 100 (complete control), 14 to 21 d
[16] = Postemergence, 250 g ai/ha, scale 0 to 100 (0 no effect, 100 complete control)
[17] = Preemergence, 125 g ai/ha, scale 0 to 100 (0 no effect, 100 complete control)
[18] = Preemergence, 250 g ai/ha, scale 0 to 100 (0 no effect, 100 complete control)
[19] = postemergence, 62 g ai/ha, scale 0 to 100, 0 no effect, 100 complete control
[20] = Preemergence, 62 g ai/ha, scale 0 to 100 (0 no effect, 100 complete control)

CC(=O)Oc1c(C)nn(C)c(=O)c1-c1c(C)cc(C)c2ccccc12 [Compound 153]
Lambsquarters plant response rating [1, 14]: 75 | Plant response rating, Lambsquarters [1, 15]: 65 | Plant response rating, Lambsquarters [1, 16]: 75 | Plant response rating (scale of 0 to 100), Lambsquarters ([1]; Preemergence, 31 g ai/ha): 70 | Plant response rating (scale of 0 to 100), Lambsquarters ([1]; Preemergence, 62 g ai/ha): 85 | Plant response rating, Lambsquarters [1, 17]: 100 | Plant response rating, Lambsquarters [1, 18]: 100 | Plant response rating, Lambsquarters [1, 19]: 65 | Bluegrass plant response rating [2, 14]: 15 | Plant response rating, Bluegrass [2, 15]: 30 | Plant response rating, Bluegrass [2, 16]: 40 | Plant response rating (scale of 0 to 100), Bluegrass ([2]; Preemergence, 31 g ai/ha): 70 | Plant response rating, Bluegrass [2, 20]: 75 | Plant response rating, Bluegrass [2, 17]: 75 | Plant response rating, Bluegrass [2, 18]: 75 | Plant response rating, Bluegrass [2, 19]: 15 | Blackgrass plant response rating [3, 14]: 65 | Plant response rating, Blackgrass [3, 15]: 75 | Plant response rating, Blackgrass [3, 16]: 80 | Plant response rating (scale of 0 to 100), Blackgrass ([3]; Preemergence, 31 g ai/ha): 75 | Plant response rating, Blackgrass [3, 20]: 80 | Plant response rating, Blackgrass [3, 17]: 85 | Plant response rating, Blackgrass [3, 18]: 95 | Plant response rating, Blackgrass [3, 19]: 70 | Wheat, Winter plant response rating [4, 14]: 10 | Plant response rating, Wheat, Winter [4, 15]: 25 | Plant response rating, Wheat, Winter [4, 16]: 35 | Plant response rating (scale of 0 to 100), Wheat, Winter ([4]; Preemergence, 31 g ai/ha): 5 | Plant response rating (scale of 0 to 100), Wheat, Winter ([4]; Preemergence, 62 g ai/ha): 20 | Plant response rating, Wheat, Winter [4, 17]: 45 | Plant response rating, Wheat, Winter [4, 18]: 50 | Plant response rating, Wheat, Winter [4, 19]: 15 | Foxtail, Green plant response rating [5, 14]: 80 | Plant response rating, Foxtail, Green [5, 15]: 85 | Plant response rating, Foxtail, Green [5, 16]: 85 | Plant response rating (scale of 0 to 100), Foxtail, Green ([5]; Preemergence, 31 g ai/ha): 75 | Plant response rating (scale of 0 to 100), Foxtail, Green ([5]; Preemergence, 62 g ai/ha): 75 | Plant response rating, Foxtail, Green [5, 17]: 100 | Plant response rating, Foxtail, Green [5, 18]: 100 | Plant response rating, Foxtail, Green [5, 19]: 80 | Chamomile plant response rating [6, 14]: 70 | Plant response rating, Chamomile [6, 15]: 100 | Plant response rating, Chamomile [6, 16]: 100 | Plant response rating (scale of 0 to 100), Chamomile ([6]; Preemergence, 31 g ai/ha): 100 | Plant response rating (scale of 0 to 100), Chamomile ([6]; Preemergence, 62 g ai/ha): 100 | Plant response rating, Chamomile [6, 17]: 100 | Plant response rating, Chamomile [6, 18]: 100 | Plant response rating, Chamomile [6, 19]: 95 | Ryegrass, Italian plant response rating [7, 14]: 80 | Plant response rating, Ryegrass, Italian [7, 15]: 90 | Plant response rating, Ryegrass, Italian [7, 16]: 90 | Plant response rating (scale of 0 to 100), Ryegrass, Italian ([7]; Preemergence, 31 g ai/ha): 100 | Plant response rating (scale of 0 to 100), Ryegrass, Italian ([7]; Preemergence, 62 g ai/ha): 100 | Plant response rating, Ryegrass, Italian [7, 17]: 100 | Plant response rating, Ryegrass, Italian [7, 18]: 100 | Plant response rating, Ryegrass, Italian [7, 19]: 90 | Wheat, Spring plant response rating [8, 14]: 20 | Plant response rating, Wheat, Spring [8, 15]: 40 | Plant response rating, Wheat, Spring [8, 16]: 50 | Plant response rating (scale of 0 to 100), Wheat, Spring ([8]; Preemergence, 31 g ai/ha): 25 | Plant response rating (scale of 0 to 100), Wheat, Spring ([8]; Preemergence, 62 g ai/ha): 45 | Plant response rating, Wheat, Spring [8, 17]: 70 | Plant response rating, Wheat, Spring [8, 18]: 85 | Plant response rating, Wheat, Spring [8, 19]: 30 | Field Poppy plant response rating [9, 14]: 75 | Plant response rating, Field Poppy [9, 15]: 100 | Plant response rating, Field Poppy [9, 16]: 100 | Plant response rating (scale of 0 to 100), Field Poppy ([9]; Preemergence, 31 g ai/ha): 100 | Plant response rating (scale of 0 to 100), Field Poppy ([9]; Preemergence, 62 g ai/ha): 100 | Plant response rating, Field Poppy [9, 17]: 100 | Plant response rating, Field Poppy [9, 18]: 100 | Plant response rating, Field Poppy [9, 19]: 95 | Mustard, Wild plant response rating [10, 14]: 98 | Plant response rating, Mustard, Wild [10, 15]: 100 | Plant response rating, Mustard, Wild [10, 16]: 100 | Plant response rating (scale of 0 to 100), Mustard, Wild ([10]; Preemergence, 31 g ai/ha): 100 | Plant response rating (scale of 0 to 100), Mustard, Wild ([10]; Preemergence, 62 g ai/ha): 100 | Plant response rating, Mustard, Wild [10, 17]: 100 | Plant response rating, Mustard, Wild [10, 18]: 100 | Plant response rating, Mustard, Wild [10, 19]: 98 | Oilseed Rape plant response rating [11, 14]: 70 | Plant response rating, Oilseed Rape [11, 15]: 85 | Plant response rating, Oilseed Rape [11, 16]: 98 | Plant response rating (scale of 0 to 100), Oilseed Rape ([11]; Preemergence, 31 g ai/ha): 75 | Plant response rating (scale of 0 to 100), Oilseed Rape ([11]; Preemergence, 62 g ai/ha): 85 | Plant response rating, Oilseed Rape [11, 17]: 90 | Plant response rating, Oilseed Rape [11, 18]: 100 | Plant response rating, Oilseed Rape [11, 19]: 85 | Barley, Spring plant response rating [12, 14]: 5 | Plant response rating, Barley, Spring [12, 15]: 15 | Plant response rating, Barley, Spring [12, 16]: 30 | Plant response rating (scale of 0 to 100), Barley, Spring ([12]; Preemergence, 31 g ai/ha): 0 | Plant response rating, Barley, Spring [12, 20]: 0 | Plant response rating, Barley, Spring [12, 17]: 25 | Plant response rating, Barley, Spring [12, 18]: 40 | Plant response rating, Barley, Spring [12, 19]: 5 | Speedwell plant response rating [13, 14]: 75 | Plant response rating, Speedwell [13, 15]: 90 | Plant response rating, Speedwell [13, 16]: 100 | Plant response rating (scale of 0 to 100), Speedwell ([13]; Preemergence, 31 g ai/ha): 100 | Plant response rating (scale of 0 to 100), Speedwell ([13]; Preemergence, 62 g ai/ha): 100 | Plant response rating, Speedwell [13, 17]: 100 | Plant response rating, Speedwell [13, 18]: 100 | Plant response rating, Speedwell [13, 19]: 75
